The conditions of data set [1]: background statement; cited from earlier work.
In a further data set the test system is GPR10. The note with it: previous studies (EP 3094643); cited from earlier work.
The subject of a further data set is obese WKY rats. Put plainly: change in weight after chronic (30 days) IP or IN administration to obese WKY rats on high-fat diet. Conditions: for weight change: obese WKY rats on HFD, 30 days. It is filed as in vivo, rat (Wistar Kyoto. On the procedure: (§1) Male WKY rats (Charles River, Germany) were kept in the accredited animal facility of the Institute of Physiology of the CAS, v.v.i., Prague, in the facility of the Academy of Sciences in Krč at a temperature of 22±2 °C and had free access to food and tap water. The light/dark rhythm was 12/12 hours (light onset 4:00). The animals were treated according to the Act on the Protection of Animals against Cruelty (Act No. 246/1992 Coll.). Males were fed a high-fat diet D12492 (Research Diets, USA) containing 60% fat, 20% protein and 20% carbohydrate. From 8 weeks of age, they were fed this diet for 4 months. They were then divided into groups of 5 animals (IP administration of saline or palm^11-PrRP31 in saline at 5 mg/kg) or 8 animals (IN administration of saline or palm^11-PrRP31 in saline at 0.3 mg/kg). The compound was administered IP or IN once daily 1 hour before lights out for 30 days. Throughout the period, the weight of the rats was monitored 3 times a week and at the end, glycated hemoglobin was measured in blood drawn from the tail. Glycated hemoglobin (HbAlc) was determined using the Tina-quant HbAlc Gen. 3 kit (Roche, Mannheim, Germany).
(§2) Graph-Pad Prism Software (San Diego, CA, USA), one-way ANOVA followed by Dunnett's post-hoc test was used for statistical evaluation. Differences in food intake between individuals injected with saline and those injected with palm^11-PrRP31 were considered statistically significant at P<0.05.

The next data set relates to obese C57BL/6 mice. Put plainly: change in weight after chronic (14 days) SC or IN administration to obese C57BL/6 mice on high-fat diet. The class given is in vivo, mouse (C57BL/6). The note with it: for body weight change: obese C57BL/6 mice on HFD. As to the method:
(§3) Male C57BL/6 mice (Charles River, Germany) were kept in the accredited animal facility of the Institute of Organic Chemistry and Biochemistry of the CAS, Prague, in the facility of the Academy of Sciences in Krč at a temperature of 22±2 °C and had free access to food and tap water. The light/dark rhythm was 12/12 hours (light onset 4:00). The animals were treated according to the Act on the Protection of Animals against Cruelty (Act No. 246/1992 Coll.). Males were fed at-house-made high-fat diet containing 60% fat (lard), 20% protein and 20% carbohydrate. From 8 weeks of age, they were fed this diet for 4 months. They were then divided into groups of 6 animals (SC administration of saline or palm^11-PrRP31 in saline at 5 mg/kg and IN administration of saline or palm^11-PrRP31 in saline at 0.3 mg/kg). The compound was administered SC or IN twice daily 1 hour before lights out for 14 days. Throughout the period, the weight of the mice was monitored 3 times a week.
as §2

Data set [2] has as its system blood glucose. Put plainly: blood glucose after repeated administration to obese WKY rats on high-fat diet. It is filed as in vivo, rat (Wistar Kyoto. The note with it: obese WKY rats on HFD, IN 0.3 mg/kg repeated, same extent as IP 5 mg/kg. On the procedure: as §1
Data set [3] has as its system blood glucose. Put plainly: blood glucose after repeated administration to obese C57BL/6N mice on high-fat diet. It is filed as in vivo, mouse (C57BL/6N). Conditions: obese C57BL/6N mice on HFD, IN 0.3 mg/kg repeated. As to the method:
as §3, with “They were then divided into groups of 6 animals (SC administration of saline or palm^11-PrRP31 in saline at 5 mg/kg and IN administration of saline or palm^11-PrRP31 in saline at 0.3 mg/kg).” left out

The subject of data set [4] is glycated hemoglobin (HbAlc). Put plainly: glycated hemoglobin (HbA1c) in obese WKY rats after 30 days of treatment. The class given is in vivo, rat (Wistar Kyoto. Conditions: obese WKY rats on HFD. On the procedure: as §1, §2
A further data set has as its system fasted C57BL/6 mice. Put plainly: food intake test in fasted mice after SC or IN administration. The note with it: for food intake: fasted mice. The class given is in vivo, mouse (C57BL/6). On the procedure: Male mice of strain C57BL/6 (Charles River, Germany) were kept in the accredited animal facility of the Institute of Organic Chemistry and Biochemistry of the Academy of Sciences of the Czech Republic (CAS), Prague in the facility of the Academy of Sciences in Krč at a temperature of 22±2 °C and had free access to food and tap water. The rhythm of light/dark was 12/12 h (light onset 6:00). The animals were treated according to the Act on the Protection of Animals against Cruelty (Czech Act No. 246/1992 Coll.). Males were fed a standard Ssniff R/M-H diet (Ssniff Spezialdiäten GmbH, Soest, Germany). 16 h before the application of palm^11-PrRP31, the mice were fasted with free access to water. Application of saline and palm^11-PrRP31 after dissolution in saline was performed by SC at 5 mg/kg (volume 0.15 ml/mouse) or IN using a fine-tip pipette at 0.01 and 0.1 mg/kg (5 μl/mouse). Twenty minutes after peptide injection, mice were given pre-weighed food. The food was then weighed every 30 minutes for 7 hours. The experiment was performed at least twice for each dose of palm^11-PrRP31 and one group of mice consisted of at least 6 mice. The results are expressed as a percentage of food intake compared to the saline-injected control group.
Graph-Pad Prism Software (San Diego, CA, USA), one-way ANOVA followed by Dunnett's post-hoc test was used for statistical evaluation. Differences in food intake between individuals injected with saline (control) and those injected with palm^11-PrRP31 were considered statistically significant at P<0.05.

Data set [5] has as its system mouse and rat models of high-fat diet-induced obesity. Conditions: chronic peripheral administration; cited from earlier work.
For a further data set, the system named is rats. Conditions: intracerebroventricular (ICV); cited from earlier work.
[6] abbreviates: IN 0.3 mg/kg once daily, listed as Palm^11-PrRP31.

“Also recorded” adds a separate entry of the source. Numbered stars: 1 amine (or outer) side, 2 acyl side, 3 side chain; on linkers, the order of the positions; unused ones are H or OH. Side chains are listed from the residue outwards. Ends that are not written are not given here. Peptide text beside a SMILES is read from it. * marks the point of attachment. γGlu = O=C(O)[C@H](CCC(=O)[*:2])N[*:1]; Palmitoyl = CCCCCCCCCCCCCCCC(=O)*

`CCCCCCCCCCC[C@@H](C[C@@H]1OC(=O)[C@H]1CCCCCC)OC(=O)[C@H](CC(C)C)NC=O` [Orlistat]: the side effects entry in data set [1] is “diarrhea”.
Take `CC(C)CC(N(C)C)C1(c2ccc(Cl)cc2)CCC1` (stereo not drawn) [Sibutramine]: the side effects result in data set [1] is given as “increase the risk of heart disease”.
For `CCCCCCCCCCCCCCCC(=O)N[C@@H](CCC(=O)NCCCC[C@H](NC(=O)[C@@H](NC(=O)[C@H](CCC(=O)O)NC(=O)[C@H](CCSC)NC(=O)[C@H](CO)NC(=O)[C@H](Cc1c[nH]cn1)NC(=O)[C@H](CCCNC(=N)N)NC(=O)[C@H](Cc1c[nH]cn1)NC(=O)[C@@H](NC(=O)[C@H](CCCNC(=N)N)NC(=O)[C@@H](N)CO)[C@@H](C)O)[C@@H](C)CC)C(=O)N[C@H](C(=O)N1CCC[C@H]1C(=O)N[C@@H](CC(=O)O)C(=O)N[C@H](C(=O)N[C@@H](CC(N)=O)C(=O)N1CCC[C@H]1C(=O)N[C@@H](C)C(=O)N[C@@H](Cc1c[nH]c2ccccc12)C(=O)N[C@@H](Cc1ccc(O)cc1)C(=O)N[C@@H](C)C(=O)N[C@@H](CO)C(=O)N[C@@H](CCCNC(=N)N)C(=O)NCC(=O)N[C@H](C(=O)N[C@@H](CCCNC(=N)N)C(=O)N1CCC[C@H]1C(=O)N[C@H](C(=O)NCC(=O)N[C@@H](CCCNC(=N)N)C(=O)N[C@@H](Cc1ccccc1)C(N)=O)C(C)C)[C@@H](C)CC)[C@@H](C)CC)[C@@H](C)O)C(=O)O` [palm^11-PrRP31] (H-SRTHRHSMEIK([γGlu-Palmitoyl])TPDINPAWYASRGIRPVGRF-NH2), the “potency among analogues of PrRP31” value with GPR10 is recorded as “most potent analogue of the natural peptide PrRP31”. The “significance P vs. saline, change in weight” value in the data set with obese WKY rats (FIG. 2, IN 0.3 mg/kg, IP 5 mg/kg, ANOVA, Dunnett's) is under 0.001; with obese C57BL/6 mice (FIG. 4, IN 0.3 mg/kg, SC 5 mg/kg twice daily, ANOVA, Dunnett's), under 0.001. Moreover, the “IN dose lower than IP dose for the same weight reduction” value in the data set on obese WKY rats (IN 0.3 mg/kg vs. IP dose, rats) stood at 16 times lower. The weight change entry in the data set on obese WKY rats (IN 0.3 mg/kg once daily) is reported as “reduced weight; also recorded: highly significant weight reduction”; with obese WKY rats (setting [6]), “reduced the weight of rats after chronic administration to the same extent”; with obese WKY rats (IP 5 mg/kg once daily, 5 mg/kg), “highly significant weight reduction”; in the data set on obese WKY rats (IP 5 mg/kg once daily, listed as Palm^11-PrRP31, 5 mg/kg) it was “reduced the weight of rats after chronic administration to the same extent”. Moreover, the body weight change entry with obese C57BL/6 mice (IN 0.3 mg/kg (twice daily, 14 days)) is “reduced weight; also recorded: highly significant weight reduction”; in the data set with obese C57BL/6 mice (IN 0.3 mg/kg (twice daily, 14 days), listed as Palm^11-PrRP31), “highly significant weight reduction”; with obese C57BL/6 mice (SC 5 mg/kg twice daily, 14 days), “highly significant weight reduction”. In addition, the blood glucose result in the data set on blood glucose [2] and in the data set with blood glucose [3] was “decreased blood glucose” in each case. In addition, the “glycated hemoglobin (HbAlc)” value is listed as “significant decrease in blood glycated hemoglobin” in [4] (IN 0.3 mg/kg once daily), “significantly reduced glycated hemoglobin” in data set [4] (setting [6]) and “significantly reduced glycated hemoglobin” in data set [4] (IP 5 mg/kg once daily). Also, the “significance P vs. saline, cumulative food intake” value in the data set with fasted C57BL/6 mice (FIG. 1, SC 5 mg/kg, IN 0.01 and 0.1 mg/kg, ANOVA, Dunnett's) is reported as under 0.001. The “IN dose relative to SC dose for the same reduction in food intake, in words” value with fasted C57BL/6 mice (IN 0.01 and 0.1 mg/kg vs. SC 5 mg/kg) is on record as “an order of magnitude lower dose”. Further, in the data set with fasted C57BL/6 mice (IN vs. SC, feeding test in mice), the “IN dose lower than SC dose to achieve the same effect on food intake” value is 1-2 orders of magnitude. Besides, the food intake result in the data set with fasted C57BL/6 mice (IN 0.01 mg/kg, vs. saline / SC 5 mg/kg) is “same reduction in food intake; also recorded: significantly reduced food intake”; in the data set on fasted C57BL/6 mice (IN 0.01 mg/kg, vs. saline / SC 5 mg/kg, listed as Palm^11-PrRP31), “reduced food intake in fasted mice very significantly and over a long period of time, to the same extent”; in the data set with fasted C57BL/6 mice (IN 0.1 mg/kg, vs. saline / SC 5 mg/kg), “same reduction in food intake; also recorded: significantly reduced food intake”; in the data set on fasted C57BL/6 mice (IN 0.1 mg/kg, vs. saline / SC 5 mg/kg, listed as Palm^11-PrRP31), “reduced food intake in fasted mice very significantly and over a long period of time, to the same extent”; in the data set on fasted C57BL/6 mice (SC 5 mg/kg, vs. saline, 5 mg/kg), “highly significant (P<0.001) reduction in food intake; also recorded: significantly reduced food intake”; in the data set on fasted C57BL/6 mice (SC 5 mg/kg, vs. saline, listed as Palm^11-PrRP31, 5 mg/kg) it was “reduced food intake in fasted mice very significantly and over a long period of time”. The “anti-obesity and anti-diabetic effects” value in data set [5] is “anti-obesity and anti-diabetic effects”.
Take “PrRP31: natural prolactin-releasing peptide form containing 31 amino acids (SRTHRHSMEIRTPDINPAWYASRGIRPVGRF; ends and bridges not checked; UniProt P81277 23-53, looked up)”: in the data set with rats, the food intake result is “significant short-term reduction in food intake” and the weight result is reported as “weight loss”.

These data come from patent publication US20260374836A1, “PALMITOYLATED ANALOGUE OF PROLACTIN-RELEASING PEPTIDE FOR INTRANASAL ADMINISTRATION” (USTAV ORGANICKE CHEMIE A BIOCHEMIE AKADEMIE VED CR, V. V. I., priority 2022, published 2026).
